Data published in PubChem BioAssay AID330 (DTP/NCI, 2004).
Values joined by “and” are separate entries in the source; they are usually repeats but may differ in a detail not shown here. Equal entries are not always repeated. Inconclusive results and toxic doses are left out. The calls were made as follows: active = survival T/C of 150% or more; inactive = T/C below 125% in these data. Peptide text beside a SMILES is read from it. * marks the point of attachment. Cbz = O=C(OCc1ccccc1)*

System: P388 leukemia ip, CD2F1 mice, survival T/C
Assay: NCI In Vivo Anticancer Drug Screen. Data for tumor model P388 Leukemia (intraperitoneal) in CD2F1 (CDF1) mice
Conditions: endpoint: median survival time, higher = longer survival
Method in brief: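 Mice carrying the transplanted tumor received test compound or vehicle. Survival was recorded in each group, and the value is the treated-group measurement divided by that of the vehicle-treated control group.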

[1] = dose: 50.0 mg/kg/injection, schedule: Q01DX005 (ip), vehicle: Klucel (hydroxypropylcellulose) (HPC)
[2] = dose: 100.0 mg/kg/injection, schedule: Q01DX005 (ip), vehicle: Klucel (hydroxypropylcellulose) (HPC)
[3] = dose: 25.0 mg/kg/injection, schedule: Q01DX005 (ip), vehicle: saline with Tween-80
[4] = dose: 50.0 mg/kg/injection, schedule: Q01DX005 (ip), vehicle: saline with Tween-80
[5] = dose: 100.0 mg/kg/injection, schedule: Q01DX005 (ip), vehicle: saline with Tween-80
[6] = dose: 60.0 mg/kg/injection, schedule: Q01DX005 (ip), vehicle: saline with Tween-80
[7] = dose: 100.0 mg/kg/injection, schedule: Q04DX002 (ip), vehicle: saline with Tween-80
[8] = dose: 200.0 mg/kg/injection, schedule: Q04DX002 (ip), vehicle: saline with Tween-80
[9] = dose: 200.0 mg/kg/injection, schedule: Q01DX005 (ip), vehicle: Klucel (hydroxypropylcellulose) (HPC)
[10] = dose: 120.0 mg/kg/injection, schedule: Q01DX005 (ip), vehicle: saline with Tween-80
[11] = dose: 100.0 mg/kg/injection, schedule: Q04DX003 (ip), vehicle: saline
[12] = dose: 200.0 mg/kg/injection, schedule: Q01DX005 (ip), vehicle: saline with Tween-80
[13] = dose: 240.0 mg/kg/injection, schedule: Q01DX005 (ip), vehicle: saline with Tween-80
[14] = dose: 50.0 mg/kg/injection, schedule: Q01DX009 (ip), vehicle: saline
[15] = dose: 100.0 mg/kg/injection, schedule: Q01DX009 (ip), vehicle: saline
[16] = dose: 200.0 mg/kg/injection, schedule: Q01DX009 (ip), vehicle: saline

Measured: T/C

COC(=O)CC(c1ccc(OC)cc1)c1cc2c(cc1OC)OCO2 (configuration not stated)
inactive: dose: 50.0 mg/kg/injection, schedule: Q01DX005 (ip), vehicle: distilled water + Tween-80 97 % of control | dose: 100.0 mg/kg/injection, schedule: Q01DX005 (ip), vehicle: distilled water + Tween-80 97 % of control | dose: 200.0 mg/kg/injection, schedule: Q01DX005 (ip), vehicle: distilled water + Tween-80 97 % of control

COc1ccccc1C1NC(c2ccccc2OC)C2CCCC1NC2=O (configuration not stated)
inactive: dose: 100.0 mg/kg/injection, schedule: Q04DX003 (ip), vehicle: suspension in saline 98 % of control | dose: 200.0 mg/kg/injection, schedule: Q04DX003 (ip), vehicle: suspension in saline 98 % of control | dose: 400.0 mg/kg/injection, schedule: Q04DX003 (ip), vehicle: suspension in saline 98 % of control

CC(C)N1CCN(c2ccc(OCC3COC(Cn4cncn4)(c4ccc(Cl)cc4Cl)O3)cc2)CC1 (configuration not stated)
inactive: [1] 100 % of control | [2] 101 % of control

CN(C)C(=S)SCNC(=S)NCSC(=S)N(C)C
inactive: dose: 6.25 mg/kg/injection, schedule: Q01DX009 (ip), vehicle: saline with Tween-80 104 % of control | dose: 12.5 mg/kg/injection, schedule: Q01DX009 (ip), vehicle: saline with Tween-80 110 % of control and 117 % of control | dose: 25.0 mg/kg/injection, schedule: Q01DX009 (ip), vehicle: saline with Tween-80 116 % of control and 121 % of control

NC(=O)/C(N=Nc1ccccc1)=N\Nc1ccccc1
inactive: dose: 6.25 mg/kg/injection, schedule: Q01DX005 (ip), vehicle: Klucel (hydroxypropylcellulose) (HPC) 91 % of control | dose: 12.5 mg/kg/injection, schedule: Q01DX005 (ip), vehicle: Klucel (hydroxypropylcellulose) (HPC) 91 % of control | dose: 25.0 mg/kg/injection, schedule: Q01DX005 (ip), vehicle: Klucel (hydroxypropylcellulose) (HPC) 87 % of control

CC(=O)C[n+]1ccc(C)cc1Sc1ccccc1C
inactive: [3] 101 % of control and 103 % of control | [4] 111 % of control and 113 % of control and 122 % of control | [5] 118 % of control and 120 % of control

C[Si](CCCNCCN)(O[Si](C)(CCCNCCN)c1ccccc1)c1ccccc1 (configuration not stated)
inactive: dose: 15.0 mg/kg/injection, schedule: Q01DX005 (ip), vehicle: saline with Tween-80 109 % of control | dose: 30.0 mg/kg/injection, schedule: Q01DX005 (ip), vehicle: saline with Tween-80 105 % of control | [6] 100 % of control

CCN(CC)CCOc1ccc(/C=C(\C)C(C)=O)cc1
inactive: dose: 50.0 mg/kg/injection, schedule: Q01DX005 (ip), vehicle: saline 94 % of control | dose: 100.0 mg/kg/injection, schedule: Q01DX005 (ip), vehicle: saline 90 % of control

CCCn1c(C)nc2c(N)cc(C(F)(F)F)cc21
inactive: [7] 105 % of control | [8] 100 % of control | dose: 400.0 mg/kg/injection, schedule: Q04DX002 (ip), vehicle: saline with Tween-80 95 % of control

C[C@@H]1C[C@H](C)OC(CO)O1 (some centres not stated) (tested in a mixture with another compound)
inactive: dose: 60.0 mg/kg/injection, schedule: Q01DX005 (ip), vehicle: saline 100 % of control | dose: 120.0 mg/kg/injection, schedule: Q01DX005 (ip), vehicle: saline 99 % of control | dose: 240.0 mg/kg/injection, schedule: Q01DX005 (ip), vehicle: saline 97 % of control

O=C(Nc1nnc(-c2ccccc2)s1)c1cc(=O)c2cc(Cl)ccc2o1
inactive: [1] 114 % of control | [2] 98 % of control | [9] 106 % of control

CCCCn1nnc2cc(-c3c(N)nc(N)nc3CC)ccc21
inactive: [1] 87 % of control | [2] 89 % of control | [9] 89 % of control

COc1ccccc1C(Nc1nncs1)Nc1nncs1
inactive: [6] 106 % of control | [10] 97 % of control

CCC[CH2][Sn]([F])([CH2]CCC)[O][Sn]([F])([CH2]CCC)[CH2]CCC
inactive: [11] 101 % of control | dose: 200.0 mg/kg/injection, schedule: Q04DX003 (ip), vehicle: saline 105 % of control

O=C(O)c1c2ccccc2nc2ccccc12
inactive: dose: 12.5 mg/kg/injection, schedule: Q01DX005 (ip), vehicle: saline with Tween-80 106 % of control and 93 % of control | [3] 100 % of control and 95 % of control | [4] 104 % of control and 113 % of control and 121 % of control

CN(C)CCCOC1=Nc2ccccc2O/C1=C/c1cccs1
inactive: dose: 25.0 mg/kg/injection, schedule: Q04DX003 (ip), vehicle: saline 94 % of control | dose: 50.0 mg/kg/injection, schedule: Q04DX003 (ip), vehicle: saline 94 % of control | [11] 100 % of control and 94 % of control

CCn1cc(C(=O)O)c(=O)c2ccc(C)nc21 (tested in a mixture with another compound)
inactive: [7] 99 % of control | [8] 91 % of control

O=C(O)CCCc1cccc2c1CCCC2
inactive: [1] 102 % of control | [2] 100 % of control | [9] 100 % of control

CCOC(=O)N1CCc2cc3c(cc2C1Cc1ccc(OC)c(OC)c1COC(C)=O)OCO3 (configuration not stated)
inactive: [4] 100 % of control | [5] 100 % of control | [12] 89 % of control

CCC1COS(=O)(=O)CS(=O)(=O)O1 (configuration not stated)
inactive: [6] 101 % of control | [10] 100 % of control | [13] 105 % of control

COc1cc(OC)c2ccc(=O)oc2c1/C=C\C1(C)CCC(C)=CC1c1c(OC)cc(OC)c2ccc(=O)oc12 (configuration not stated)
inactive: dose: 2.5 mg/kg/injection, schedule: Q01DX005 (ip), vehicle: Klucel (hydroxypropylcellulose) (HPC) 96 % of control | dose: 5.0 mg/kg/injection, schedule: Q01DX005 (ip), vehicle: Klucel (hydroxypropylcellulose) (HPC) 105 % of control | dose: 10.0 mg/kg/injection, schedule: Q01DX005 (ip), vehicle: Klucel (hydroxypropylcellulose) (HPC) 117 % of control | dose: 20.0 mg/kg/injection, schedule: Q01DX005 (ip), vehicle: Klucel (hydroxypropylcellulose) (HPC) 96 % of control | dose: 40.0 mg/kg/injection, schedule: Q01DX005 (ip), vehicle: Klucel (hydroxypropylcellulose) (HPC) 86 % of control

COC(=O)C1=C(C(=O)OC)C2C3CC4C(C13)C42
inactive: dose: 9.4 mg/kg/injection, schedule: Q01DX009 (none), vehicle: saline 105 % of control | dose: 18.75 mg/kg/injection, schedule: Q01DX009 (none), vehicle: saline 106 % of control | dose: 37.5 mg/kg/injection, schedule: Q01DX009 (none), vehicle: saline 105 % of control | dose: 75.0 mg/kg/injection, schedule: Q01DX009 (none), vehicle: saline 99 % of control

Cc1cc(=O)oc2nc(-c3ccccc3)[nH]c(=O)c12
inactive: dose: 60.0 mg/kg/injection, schedule: Q01DX005 (ip), vehicle: Klucel (hydroxypropylcellulose) (HPC) 86 % of control | dose: 120.0 mg/kg/injection, schedule: Q01DX005 (ip), vehicle: Klucel (hydroxypropylcellulose) (HPC) 100 % of control | dose: 240.0 mg/kg/injection, schedule: Q01DX005 (ip), vehicle: Klucel (hydroxypropylcellulose) (HPC) 91 % of control

Nc1ncccc1OCc1ccccc1
inactive: [14] 100 % of control and 110 % of control | [15] 107 % of control and 116 % of control | [16] 113 % of control and 98 % of control | dose: 400.0 mg/kg/injection, schedule: Q01DX009 (ip), vehicle: saline 100 % of control and 95 % of control

CCN(CC)C(C)(C)C(=O)/C=C/c1ccc(OC)cc1
inactive: [6] 115 % of control | [10] 107 % of control | [13] 100 % of control

OC1C(c2ccccc2)=C(c2ccccc2)C2(c3ccccc3)CC12c1ccccc1 (configuration not stated)
inactive: dose: 12.5 mg/kg/injection, schedule: Q04DX003 (ip), vehicle: saline with Tween-80 93 % of control | dose: 25.0 mg/kg/injection, schedule: Q04DX003 (ip), vehicle: saline with Tween-80 117 % of control | dose: 50.0 mg/kg/injection, schedule: Q04DX003 (ip), vehicle: saline with Tween-80 88 % of control

CC(NC(=O)C(Cc1ccc(O)cc1)NC(=O)C(C)NC(=O)OCc1ccccc1)C(=O)O (stereo not drawn) (Cbz-Ala-Tyr-Ala-OH; configuration not given here)
inactive: [4] 100 % of control | [5] 104 % of control | [12] 99 % of control

OC(CNc1ccc(CSc2ccccc2)cc1)c1ccccc1 (configuration not stated)
inactive: dose: 50.0 mg/kg/injection, schedule: Q01DX009 (ip), vehicle: saline + Tween-80 + alcohol 101 % of control and 104 % of control | dose: 100.0 mg/kg/injection, schedule: Q01DX009 (ip), vehicle: saline + Tween-80 + alcohol 99 % of control | dose: 200.0 mg/kg/injection, schedule: Q01DX009 (ip), vehicle: saline + Tween-80 + alcohol 99 % of control and 102 % of control | dose: 400.0 mg/kg/injection, schedule: Q01DX009 (ip), vehicle: saline + Tween-80 + alcohol 104 % of control and 90 % of control

CCNC1=C(C(=O)c2ccccc2)CCC1
inactive: [14] 109 % of control | [15] 104 % of control | [16] 109 % of control
